PubChem BioAssay (NCI)
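1) Cells in 96-well plates. 2) Compound, 48 h, 5 concentrations. 3) Linear interpolation between surrounding doses. 4) Unreached endpoint = highest concentration. At the GI50, growth is halved. TGI: concentration producing complete growth inhibition.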

Tests used:
Test in all cases: inhibition of tumour cell growth, NCI panel, 48 h
PC-3 prostate = tested on: PC-3 prostate
SK-MEL-28 melanoma = tested on: SK-MEL-28 melanoma
DU-145 prostate = tested on: DU-145 prostate
RPMI-8226 leukemia = tested on: RPMI-8226 leukemia
T-47D breast = tested on: T-47D breast
SR leukemia = tested on: SR leukemia
OVCAR-4 ovarian = tested on: OVCAR-4 ovarian
LOX IMVI melanoma = tested on: LOX IMVI melanoma
CCRF-CEM leukemia = tested on: CCRF-CEM leukemia
HOP-62 NSCLC = tested on: HOP-62 NSCLC
MDA-MB-231 breast = tested on: MDA-MB-231 breast
SW-620 colon = tested on: SW-620 colon
A549 NSCLC = tested on: A549 NSCLC
BT-549 breast = tested on: BT-549 breast
HL-60(TB) leukemia = tested on: HL-60(TB) leukemia
UACC-62 melanoma = tested on: UACC-62 melanoma
NCI-H23 lung = tested on: NCI-H23 lung
HT29 colon = tested on: HT29 colon
K-562 leukemia = tested on: K-562 leukemia
HCT-116 colon = tested on: HCT-116 colon
UO-31 renal = tested on: UO-31 renal
OVCAR-8 ovarian = tested on: OVCAR-8 ovarian
UACC-257 melanoma = tested on: UACC-257 melanoma
SF-268 CNS = tested on: SF-268 CNS
SK-MEL-2 melanoma = tested on: SK-MEL-2 melanoma
MOLT-4 leukemia = tested on: MOLT-4 leukemia
HS 578T breast = tested on: HS 578T breast
MDA-MB-435 = tested on: MDA-MB-435
NCI-H460 lung = tested on: NCI-H460 lung
RXF 393 renal = tested on: RXF 393 renal
KM12 colon = tested on: KM12 colon
NCI-H226 lung = tested on: NCI-H226 lung
HOP-92 NSCLC = tested on: HOP-92 NSCLC
NCI/ADR-RES ovarian = tested on: NCI/ADR-RES ovarian
IGROV1 ovarian = tested on: IGROV1 ovarian
SN12C renal = tested on: SN12C renal
COLO 205 colon = tested on: COLO 205 colon
OVCAR-3 ovarian = tested on: OVCAR-3 ovarian
MALME-3M melanoma = tested on: MALME-3M melanoma
ACHN renal = tested on: ACHN renal
SK-MEL-5 melanoma = tested on: SK-MEL-5 melanoma
A498 renal = tested on: A498 renal
SF-539 CNS = tested on: SF-539 CNS
MCF7 breast = tested on: MCF7 breast
EKVX NSCLC = tested on: EKVX NSCLC
M14 melanoma = tested on: M14 melanoma
CAKI-1 renal = tested on: CAKI-1 renal
HCT-15 colon = tested on: HCT-15 colon
HCC-2998 colon = tested on: HCC-2998 colon
U251 CNS = tested on: U251 CNS
NCI-H522 lung = tested on: NCI-H522 lung
786-0 renal = tested on: 786-0 renal
SF-295 CNS = tested on: SF-295 CNS
SNB-19 CNS = tested on: SNB-19 CNS
TK-10 renal = tested on: TK-10 renal
OVCAR-5 ovarian = tested on: OVCAR-5 ovarian
SK-OV-3 ovarian = tested on: SK-OV-3 ovarian

Cn1cc(-c2nnc(N)nc2-c2c[nH]c3ccc(F)cc23)c2cc(Br)ccc21
GI50 (PC-3 prostate): 0.991 µM
TGI (PC-3 prostate): 20.6 µM
GI50 (SK-MEL-28 melanoma): 2.98 µM
TGI (SK-MEL-28 melanoma): 17.6 µM
GI50 (DU-145 prostate): 2.91 µM
TGI (DU-145 prostate): 26.9 µM
GI50 (RPMI-8226 leukemia): 2.29 µM
TGI (RPMI-8226 leukemia): 43.4 µM
GI50 (T-47D breast): 1.91 µM
TGI (T-47D breast): 19.9 µM
GI50 (SR leukemia): 0.671 µM
TGI (SR leukemia): > 100 µM
GI50 (OVCAR-4 ovarian): 2.91 µM
TGI (OVCAR-4 ovarian): 13.1 µM
GI50 (LOX IMVI melanoma): 1.19 µM
TGI (LOX IMVI melanoma): 14 µM
GI50 (CCRF-CEM leukemia): 2.29 µM
TGI (CCRF-CEM leukemia): > 100 µM
GI50 (HOP-62 NSCLC): 1.64 µM
TGI (HOP-62 NSCLC): 14.6 µM
GI50 (MDA-MB-231 breast): 2.3 µM
TGI (MDA-MB-231 breast): 16.7 µM
GI50 (SW-620 colon): 0.658 µM
TGI (SW-620 colon): 14.2 µM
GI50 (A549 NSCLC): 2.11 µM
TGI (A549 NSCLC): 46.7 µM
GI50 (BT-549 breast): 2.67 µM
TGI (BT-549 breast): 17.6 µM
GI50 (HL-60(TB) leukemia): 0.707 µM
TGI (HL-60(TB) leukemia): > 100 µM
GI50 (UACC-62 melanoma): 0.65 µM
TGI (UACC-62 melanoma): 12.6 µM
GI50 (NCI-H23 lung): 2.08 µM
TGI (NCI-H23 lung): 10.4 µM
GI50 (HT29 colon): 0.458 µM
TGI (HT29 colon): 10.8 µM
GI50 (K-562 leukemia): 0.453 µM
TGI (K-562 leukemia): > 100 µM
GI50 (HCT-116 colon): 1.08 µM
TGI (HCT-116 colon): 11.1 µM
GI50 (UO-31 renal): 1.76 µM
TGI (UO-31 renal): 13.9 µM
GI50 (OVCAR-8 ovarian): 2.98 µM
TGI (OVCAR-8 ovarian): 20.7 µM
GI50 (UACC-257 melanoma): 4.71 µM
TGI (UACC-257 melanoma): 19.3 µM
GI50 (SF-268 CNS): 2.73 µM
TGI (SF-268 CNS): 20.1 µM
GI50 (SK-MEL-2 melanoma): 2.06 µM
TGI (SK-MEL-2 melanoma): 10.5 µM
GI50 (MOLT-4 leukemia): 1.38 µM
TGI (MOLT-4 leukemia): > 100 µM
GI50 (HS 578T breast): 2.04 µM
TGI (HS 578T breast): 8.17 µM
GI50 (MDA-MB-435): 0.28 µM
TGI (MDA-MB-435): 0.829 µM
GI50 (NCI-H460 lung): 0.611 µM
TGI (NCI-H460 lung): 10.8 µM
GI50 (RXF 393 renal): 1.38 µM
TGI (RXF 393 renal): 3.88 µM
GI50 (KM12 colon): 0.875 µM
TGI (KM12 colon): 14.6 µM
GI50 (NCI-H226 lung): 3.06 µM
TGI (NCI-H226 lung): 24.4 µM
GI50 (HOP-92 NSCLC): 1.7 µM
TGI (HOP-92 NSCLC): 13.1 µM
GI50 (NCI/ADR-RES ovarian): 2.25 µM
TGI (NCI/ADR-RES ovarian): 22.9 µM
GI50 (IGROV1 ovarian): 0.881 µM
TGI (IGROV1 ovarian): 12.7 µM
GI50 (SN12C renal): 3.12 µM
TGI (SN12C renal): 17.4 µM
GI50 (COLO 205 colon): 0.64 µM
TGI (COLO 205 colon): 3.94 µM
GI50 (OVCAR-3 ovarian): 1.15 µM
TGI (OVCAR-3 ovarian): 9.57 µM
GI50 (MALME-3M melanoma): 1.32 µM
TGI (MALME-3M melanoma): 16.6 µM
GI50 (ACHN renal): 2.8 µM
TGI (ACHN renal): 13.6 µM
GI50 (SK-MEL-5 melanoma): 1.15 µM
TGI (SK-MEL-5 melanoma): 2.71 µM
GI50 (A498 renal): 1.54 µM
TGI (A498 renal): 4.84 µM
GI50 (SF-539 CNS): 1.88 µM
TGI (SF-539 CNS): 8.7 µM
GI50 (MCF7 breast): 0.7 µM
TGI (MCF7 breast): 11.2 µM
GI50 (EKVX NSCLC): 3.02 µM
TGI (EKVX NSCLC): 15.8 µM
GI50 (M14 melanoma): 1.3 µM
TGI (M14 melanoma): 12.3 µM
GI50 (CAKI-1 renal): 0.668 µM
TGI (CAKI-1 renal): 12.5 µM
GI50 (HCT-15 colon): 0.591 µM
TGI (HCT-15 colon): 13.1 µM
GI50 (HCC-2998 colon): 2.99 µM
TGI (HCC-2998 colon): 12.5 µM
GI50 (U251 CNS): 2.43 µM
TGI (U251 CNS): 14.3 µM
GI50 (NCI-H522 lung): 0.933 µM
TGI (NCI-H522 lung): 8.28 µM
GI50 (786-0 renal): 3.79 µM
TGI (786-0 renal): 22.4 µM
GI50 (SF-295 CNS): 0.792 µM
TGI (SF-295 CNS): 5.08 µM
GI50 (SNB-19 CNS): 2.56 µM
TGI (SNB-19 CNS): 14.8 µM
GI50 (TK-10 renal): 5.18 µM
TGI (TK-10 renal): 38.9 µM
GI50 (OVCAR-5 ovarian): 3.15 µM
TGI (OVCAR-5 ovarian): 16.7 µM
GI50 (SK-OV-3 ovarian): 2.53 µM
TGI (SK-OV-3 ovarian): 15.1 µM
